Laboratory results as given in ChEMBL document CHEMBL1143093 (Bioorg Med Chem Lett, 2008).

How the values were obtained:
[1] = molecular target: Sodium-dependent dopamine transporter (Homo sapiens, UniProt Q01959); assay: Inhibition of dopamine uptake at human DAT expressed in HEK293 cells; format: cell-based
[2] = molecular target: Sodium-dependent noradrenaline transporter (Homo sapiens, UniProt P23975); assay: Inhibition of norepinephrine uptake at human NET expressed in HEK293 cells; format: cell-based
[3] = molecular target: Sodium-dependent serotonin transporter (Homo sapiens, UniProt P31645)
Description: Inhibition of serotonin uptake at human SERT expressed in HEK293 cells

[4] = Metabolic stability in human liver microsomes assessed as systemic clearance; format: ADME, Microsome
[5] = Metabolic stability in rat liver microsomes assessed as systemic clearance; format: ADME, Microsome
[6] = Apparent permeability across human Caco-2 cells; format: ADME, cell-based
[7] = Ratio of drug level in brain to plasma in rat at 30 mg/kg, po after 4 hrs; format: ADME, organism-based; design: dose 30 mg/kg, route oral
[8] = Tmax in rat at 30 mg/kg, po; format: ADME, organism-based; design: dose 30 mg/kg, route oral; details: in vivo
[9] = Cmax in rat at 30 mg/kg, po; format: ADME, organism-based; design: dose 30 mg/kg, route oral; details: in vivo
[10] = AUC in rat at 30 mg/kg, po; format: ADME, organism-based; design: dose 30 mg/kg, route oral; details: plasma
[11] = Drug level in rat brain at 30 mg/kg, po at 1 hr; format: ADME, organism-based; design: dose 30 mg/kg, route oral; details: read-out: Drug uptake
[12] = Distribution coefficient, log D of the compound; format: physicochemical; details: octanol/water
[13] = Lipophilicity, log P of the compound; format: physicochemical; details: octanol/water
[14] = Drug level in rat brain at 30 mg/kg, po at 4 hrs; format: ADME, organism-based; design: dose 30 mg/kg, route oral; details: read-out: Drug uptake
[15] = Dissociation constant, pKa of the compound; format: physicochemical
[16] = Ratio of drug level in brain to plasma in rat at 30 mg/kg, po after 1 hr; format: ADME, organism-based; design: dose 30 mg/kg, route oral
[17] = Drug level in rat brain at 10 mg/kg, po at 1 hr; format: ADME, organism-based; design: dose 10 mg/kg, route oral; details: read-out: Drug uptake
[18] = Ratio of drug level in brain to plasma in rat at 10 mg/kg, po after 4 hrs
[19] = AUC in rat at 10 mg/kg, po; format: ADME, organism-based; design: dose 10 mg/kg, route oral; details: plasma
[20] = Tmax in rat at 10 mg/kg, po; format: ADME, organism-based; design: dose 10 mg/kg, route oral; details: in vivo
[21] = Ratio of drug level in brain to plasma in rat at 10 mg/kg, po after 1 hr
[22] = Cmax in rat at 10 mg/kg, po; format: ADME, organism-based; design: dose 10 mg/kg, route oral; details: in vivo
[23] = Drug level in rat brain at 10 mg/kg, po at 4 hrs; format: ADME, organism-based; design: dose 10 mg/kg, route oral; details: read-out: Drug uptake

Sodium-dependent serotonin transporter, sequence (P31645 whole entry): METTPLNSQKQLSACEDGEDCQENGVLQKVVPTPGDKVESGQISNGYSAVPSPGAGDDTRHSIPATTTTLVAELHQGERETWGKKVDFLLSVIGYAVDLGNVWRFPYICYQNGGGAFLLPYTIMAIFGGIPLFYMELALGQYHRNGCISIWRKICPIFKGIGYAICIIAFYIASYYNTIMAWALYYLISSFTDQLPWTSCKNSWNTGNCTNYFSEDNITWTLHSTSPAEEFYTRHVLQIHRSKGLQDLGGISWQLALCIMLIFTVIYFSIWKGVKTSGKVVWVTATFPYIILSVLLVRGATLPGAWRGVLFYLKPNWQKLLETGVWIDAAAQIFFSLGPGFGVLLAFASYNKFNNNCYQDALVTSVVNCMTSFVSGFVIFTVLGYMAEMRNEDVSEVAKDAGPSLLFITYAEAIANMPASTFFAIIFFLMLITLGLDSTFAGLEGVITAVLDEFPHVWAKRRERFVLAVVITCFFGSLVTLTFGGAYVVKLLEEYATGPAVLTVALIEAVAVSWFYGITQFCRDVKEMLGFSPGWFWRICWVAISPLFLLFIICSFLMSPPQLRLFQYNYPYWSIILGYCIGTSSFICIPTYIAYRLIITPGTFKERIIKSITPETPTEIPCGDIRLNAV
Sodium-dependent dopamine transporter, sequence (Q01959 whole entry): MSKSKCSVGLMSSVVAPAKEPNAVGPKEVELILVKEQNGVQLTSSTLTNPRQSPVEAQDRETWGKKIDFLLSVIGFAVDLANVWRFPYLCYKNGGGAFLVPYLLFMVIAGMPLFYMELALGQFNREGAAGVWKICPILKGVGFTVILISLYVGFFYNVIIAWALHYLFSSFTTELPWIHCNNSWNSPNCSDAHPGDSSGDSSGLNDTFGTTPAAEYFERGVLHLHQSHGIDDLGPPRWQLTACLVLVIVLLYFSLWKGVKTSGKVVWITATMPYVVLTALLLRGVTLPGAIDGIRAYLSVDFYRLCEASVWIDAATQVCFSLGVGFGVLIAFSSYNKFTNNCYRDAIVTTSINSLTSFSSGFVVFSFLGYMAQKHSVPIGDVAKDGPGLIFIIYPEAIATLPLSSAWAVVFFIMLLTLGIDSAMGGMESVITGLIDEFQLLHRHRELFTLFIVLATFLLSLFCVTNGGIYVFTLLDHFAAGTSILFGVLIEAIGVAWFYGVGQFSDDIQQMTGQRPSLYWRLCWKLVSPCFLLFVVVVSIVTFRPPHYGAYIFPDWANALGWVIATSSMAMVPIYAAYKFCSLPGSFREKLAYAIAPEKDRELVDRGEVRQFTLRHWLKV
Sodium-dependent noradrenaline transporter, sequence (P23975 whole entry): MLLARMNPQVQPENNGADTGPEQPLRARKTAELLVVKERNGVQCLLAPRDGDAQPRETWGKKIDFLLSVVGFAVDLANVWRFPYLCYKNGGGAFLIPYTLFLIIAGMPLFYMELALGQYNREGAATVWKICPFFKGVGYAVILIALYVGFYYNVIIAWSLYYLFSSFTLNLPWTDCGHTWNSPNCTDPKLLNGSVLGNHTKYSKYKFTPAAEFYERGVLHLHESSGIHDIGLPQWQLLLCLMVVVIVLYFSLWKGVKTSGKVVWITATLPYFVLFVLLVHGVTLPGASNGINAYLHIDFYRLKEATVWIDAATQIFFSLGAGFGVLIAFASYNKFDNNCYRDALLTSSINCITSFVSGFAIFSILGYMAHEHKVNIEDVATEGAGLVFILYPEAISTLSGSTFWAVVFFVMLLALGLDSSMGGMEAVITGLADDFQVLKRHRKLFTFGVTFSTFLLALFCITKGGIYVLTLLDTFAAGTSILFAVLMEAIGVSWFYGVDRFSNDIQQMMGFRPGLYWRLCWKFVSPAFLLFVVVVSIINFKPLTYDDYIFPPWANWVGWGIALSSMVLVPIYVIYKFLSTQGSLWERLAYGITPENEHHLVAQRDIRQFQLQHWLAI

Row | IC50 [1] [nM] | IC50 [2] [nM] | IC50 [3] [nM] | CLhep predicted [4] [mL/min/kg] | CLhep predicted [5] [mL/min/kg] | Papp [6] [×10⁻⁶ cm/s] | SMILES | other results
1 | > 10000 | 20 | 420 | – | – | – | NC[C@@H]1C[C@@]1(C(=O)N1CCCc2ccccc21)c1ccsc1 | –
2 | > 10000 | 1100 | 590 | – | – | – | COCCN(C)C(=O)[C@@]1(c2ccsc2)C[C@H]1CN | –
3 | > 10000 | 8.7 | 26 | < 2.6 | 42 | 5.3 | C=CCN(C(=O)[C@@]1(c2ccsc2)C[C@H]1CN)C1CC1 | –
4 | > 10000 | 2.8 | 71 | < 2.6 | 44 | 9.6 | C#CCN(CC=C)C(=O)[C@@]1(c2ccsc2)C[C@H]1CN | –
5 | 8300 | 2.7 | 76 | 4.7 | 59 | 9.5 | C=CCN(CC=C)C(=O)[C@@]1(c2ccsc2)C[C@H]1CN | –
6 | > 10000 | 150 | 290 | – | – | – | CCN(CC)C(=O)[C@@]1(c2cc3cc(F)ccc3s2)C[C@H]1CN | –
7 | 2400 | 65 | 620 | – | – | – | CCN(CC)C(=O)[C@@]1(c2cc3ccccc3s2)C[C@H]1CN | –
8 | 6900 | 37 | – | 10 | 66 | 4.7 | NC[C@@H]1C[C@@]1(C(=O)N1Cc2ccccc2C1)c1ccsc1 | –
9 | > 10000 | 8.2 | 84 | < 2.6 | 42 | 16.4 | C#CCN(CC#C)C(=O)[C@@]1(c2ccsc2)C[C@H]1CN | –
10 | > 10000 | 3.9 | 40 | < 2.6 | 54 | 3.4 | C=C(F)CN(CCOC)C(=O)[C@@]1(c2ccsc2)C[C@H]1CN | –
11 | > 10000 | 64 | 47 | < 2.6 | 18 | 3.2 | C#CCN(CCOC)C(=O)[C@@]1(c2ccsc2)C[C@H]1CN | –
12 | > 10000 | 5.6 | 140 | 6.8 | 57 | 6.4 | C=CCN(CC)C(=O)[C@@]1(c2ccsc2)C[C@H]1CN | Kp at 4 h [7]: 0.4; Tmax [8]: 30 min; Cmax [9]: 201 ng/mL; AUC [10]: 502 ng·h/mL; concentration at 1 h [11]: 39 ng/g; logD [12]: 0.1; logP [13]: 1.5; concentration at 4 h [14]: 15 ng/g; pKa [15]: 9.5; Kp at 1 h [16]: 0.3
13 | > 10000 | 100 | 60 | – | – | – | C=CCN(C)C(=O)[C@@]1(c2ccsc2)C[C@H]1CN | –
14 | > 10000 | 170 | 3100 | – | – | – | CCN(CC)C(=O)[C@@]1(c2csc3ccccc23)C[C@H]1CN | –
15 | 6300 | 29 | 350 | – | – | – | CCN(CC)C(=O)[C@@]1(c2ccc(Br)s2)C[C@H]1CN | –
16 | > 10000 | 40 | 520 | – | – | – | CCN(CC)C(=O)[C@@]1(c2ccc(Cl)s2)C[C@H]1CN | –
17 | > 10000 | 76 | 520 | – | – | – | CCN(CC)C(=O)[C@@]1(c2cccs2)C[C@H]1CN | –
18 | > 10000 | 270 | 2000 | – | – | – | CCN(CC)C(=O)[C@@]1(c2sc(Cl)c(Cl)c2Cl)C[C@H]1CN | –
19 | > 10000 | 49 | 830 | 7.1 | 34 | 4.7 | CCN(CC)C(=O)[C@@]1(c2ccsc2)C[C@H]1CN | –
20 | > 10000 | 560 | 2200 | – | – | – | CCN(CC)C(=O)[C@@]1(c2cc(Cl)c(Cl)s2)C[C@H]1CN | –
21 | > 10000 | 1500 | 3500 | – | – | – | CCN(CC)C(=O)[C@@]1(c2ccccn2)C[C@H]1CN | –
22 | > 10000 | 44 | 60 | < 2.6 | 32 | 13.8 | C=C(F)CN(C)C(=O)[C@@]1(c2ccsc2)C[C@H]1CN | –
23 | > 10000 | 1500 | 4000 | – | – | – | CCN(CC)C(=O)[C@@]1(c2cccnc2)C[C@H]1CN | –
24 | > 10000 | 12 | 340 | 13 | 67 | 20 | NC[C@@H]1C[C@@]1(C(=O)N1C=COc2ccccc21)c1ccsc1 | –
25 | > 10000 | 200 | 1800 | – | – | – | NC[C@@H]1C[C@@]1(C(=O)N1C=CCCC1)c1ccsc1 | –
26 | > 10000 | 2200 | 9600 | – | – | – | CCN(CC)C(=O)[C@@]1(c2nc3ccccc3s2)C[C@H]1CN | –
27 | > 10000 | 20 | 47 | < 2.6 | 52 | 2.4 | C=CCN(CCOC)C(=O)[C@@]1(c2ccsc2)C[C@H]1CN | –
28 | > 10000 | 3700 | – | – | – | – | CCN(CC)C(=O)[C@@]1(c2ccsc2)C[C@H]1CNC | –
29 | > 10000 | 8.3 | 320 | – | – | – | NC[C@@H]1C[C@@]1(C(=O)N1CCc2ccccc2C1)c1ccsc1 | –
30 | > 10000 | 110 | 34 | – | – | – | C#CCN(C)C(=O)[C@@]1(c2ccsc2)C[C@H]1CN | –

Row | SMILES | IC50 [1] [nM] | IC50 [2] [nM] | IC50 [3] [nM] | CLhep predicted [4] [mL/min/kg] | CLhep predicted [5] [mL/min/kg] | Papp [6] [×10⁻⁶ cm/s] | other results
31 | CCN(CC)C(=O)[C@]1(c2ccccc2)C[C@@H]1CN | – | – | – | < 2.6 | 18 | – | –
32 | CCN(CC)C(=O)[C@@]1(c2ccsc2)C[C@H]1CN(C)C | > 10000 | > 10000 | > 10000 | – | – | – | –
33 | CCN(CC)C(=O)[C@@]1(c2ccccc2)C[C@H]1CN [LEVOMILNACIPRAN] | – | – | – | – | 24 | – | concentration at 1 h [17]: 103 ng/g; Kp at 4 h [18]: 0.86; AUC [19]: 566 ng·h/mL; Tmax [20]: 18 min; Kp at 1 h [21]: 0.42; Cmax [22]: 232 ng/mL; concentration at 4 h [23]: 55 ng/g; pKa [15]: 9.6
